# Experimental data: patent publication US9283280B2, “Compositions for drug administration” (Aegis Therapeutics, LLC, priority 2008, dated 2016)
# Columns and labels:
# blood D-glucose [1] = experiment: Insulin eye drops with absorption enhancer in xylazine/ketamine-anesthetized hyperglycemic rats, blood D-glucose; assay type: in vivo, rat; settings: for hypoglycemic effect / insulin absorption enhancement: eye drops 0.2% insulin + 0.5% enhancer; for absorption enhancing activity by alkyl chain length: ocular insulin, concentration not given
# [2] = Intranasal triptans with alkylsaccharide in rats, plasma levels by HPLC; assay type: in vivo;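 note: rats in groups of eight given 20 µL into one nostril, dose expressed as triptan free base, Cmax and Tmax read from plasma concentration–time curves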
# Experimental: Each set of drug solutions is administered to six groups of eight rats each by 20 uL instillation to a single nare of each animal. […] After the last blood sample is collected each animal is cuthanizcd with CO2. After blood collection, plasma is immediately prepared from each blood sample using lithium/heparin as the anticoagulant. Plasma samples are stored at −70° C. until analyzed. […] The observed Tmax values from each plot is determined by inspection of the concentration vs time plots and recorded as shown in Table XII. The doses designated in this table reflect amounts of triptan free base in each case.
# blood D-glucose [3] = experiment: Glucagon eye drops with surfactant in rats, elevation of blood D-glucose; settings: for Blood Glucose Concentration: glucagon eye drops + 0.5% surfactant added after 120 min
# Experimental: Glucagon absorption from the eye was measured in rats given eye drops containing various surfactants plus glucagon (30 μg) (Eli Lilly, Indianapolis, Ind.) by monitoring an elevation in blood D-glucose levels. In these experiments, rats were anesthetized with sodium pentobarbital rather than xylazine/ketamin.
# Paired animals that receive eye drops containing the surfactant alone, or glucagon alone, were compared to animals receiving eye drops with the surfactant plus glucagon.
# [4] = 0.5% surfactant, time −10 min, before insulin eye drops
# [5] = 0.5% surfactant, time −20 min, before insulin eye drops
# [6] = insulin eye drops + 0.5% surfactant, time 0 min
# [7] = insulin eye drops + 0.5% surfactant, time 10 min
# [8] = insulin eye drops + 0.5% surfactant, time 20 min
# [9] = insulin eye drops + 0.5% surfactant, time 30 min
# [10] = insulin eye drops + 0.5% surfactant, time 40 min
# [11] = insulin eye drops + 0.5% surfactant, time 50 min
# [12] = insulin eye drops + 0.5% surfactant, time 60 min
# [13] = insulin eye drops + 0.5% surfactant, time 70 min
# [14] = insulin eye drops + 0.5% surfactant, time 80 min
# [15] = insulin eye drops + 0.5% surfactant, time 90 min
# [16] = insulin eye drops + 0.5% surfactant, time 100 min
# [17] = insulin eye drops + 0.5% surfactant, time 110 min
# [18] = insulin eye drops + 0.5% surfactant, time 120 min
# [19] = Naratriptan 0.22 mg/kg intranasal, alkylsaccharide 0.02%
# [20] = Naratriptan 0.22 mg/kg intranasal, alkylsaccharide 0.05%
# [21] = Naratriptan 0.22 mg/kg intranasal, alkylsaccharide 0.1%
# [22] = Naratriptan 0.22 mg/kg intranasal, alkylsaccharide 0.5%
# [23] = Naratriptan 0.22 mg/kg intranasal, alkylsaccharide 2%
# [24] = Rizatriptan […] intranasal, alkylsaccharide 0.02%
# [25] = Rizatriptan […] intranasal, alkylsaccharide 0.05%
# [26] = Rizatriptan […] intranasal, alkylsaccharide 0.1%
# [27] = Rizatriptan […] intranasal, alkylsaccharide 0.5%
# [28] = Rizatriptan […] intranasal, alkylsaccharide 2%
# [29] = Sumatriptan 6.2 mg/kg intranasal, alkylsaccharide 0.02%
# [30] = Sumatriptan 6.2 mg/kg intranasal, alkylsaccharide 0.05%
# [31] = Sumatriptan 6.2 mg/kg intranasal, alkylsaccharide 0.1%
# [32] = Sumatriptan 6.2 mg/kg intranasal, alkylsaccharide 0.5%
# [33] = Sumatriptan 6.2 mg/kg intranasal, alkylsaccharide 2%
# [34] = insulin eye drops + 0.5% alkylglucoside
compound,measurement,setting,value
"CCCCCCCCCCO[C@@H]1O[C@H](CO)[C@@H](O[C@H]2O[C@H](CO)[C@@H](O)[C@H](O)[C@H]2O)[C@H](O)[C@H]1O [decyl maltoside, decyl-β-D-maltoside]",Blood Glucose Concentration,blood D-glucose [1]; [4],287 mg/dL
same,Blood Glucose Concentration,blood D-glucose [1]; [5],249 mg/dL
same,hypoglycemic effect / insulin absorption enhancement,blood D-glucose [1],prompt and sustained fall in blood glucose levels
same,Blood Glucose Concentration,blood D-glucose [1]; [6],337 mg/dL
same,Blood Glucose Concentration,blood D-glucose [1]; [7],304 mg/dL
same,Blood Glucose Concentration,blood D-glucose [1]; [8],292 mg/dL
same,Blood Glucose Concentration,blood D-glucose [1]; [9],221 mg/dL
same,Blood Glucose Concentration,blood D-glucose [1]; [10],164 mg/dL
same,Blood Glucose Concentration,blood D-glucose [1]; [11],138 mg/dL
same,Blood Glucose Concentration,blood D-glucose [1]; [12],114 mg/dL
same,Blood Glucose Concentration,blood D-glucose [1]; [13],104 mg/dL
same,Blood Glucose Concentration,blood D-glucose [1]; [14],110 mg/dL
same,Blood Glucose Concentration,blood D-glucose [1]; [15],120 mg/dL
same,Blood Glucose Concentration,blood D-glucose [1]; [16],92 mg/dL
same,Blood Glucose Concentration,blood D-glucose [1]; [17],81 mg/dL
same,Blood Glucose Concentration,blood D-glucose [1]; [18],87 mg/dL
same,absorption enhancing activity by alkyl chain length,blood D-glucose [1],less absorption enhancing activity
same,Ratio Cmax(alkylsacch)/Cmax(No alkylsacch),[2]; [19],≦1.5
same,Tmax,[2]; [19],~1 to 2 h
same,Ratio Cmax(alkylsacch)/Cmax(No alkylsacch),[2]; [20],≦1.5
same,Tmax,[2]; [20],~1 to 2 h
same,Ratio Cmax(alkylsacch)/Cmax(No alkylsacch),[2]; [21],≧1.5
same,Tmax,[2]; [21],~1 to 2 h
same,Ratio Cmax(alkylsacch)/Cmax(No alkylsacch),[2]; [22],≧1.5
same,Tmax,[2]; [22],~0.083 to 0.25 h
same,Ratio Cmax(alkylsacch)/Cmax(No alkylsacch),[2]; [23],≧1.5
same,Tmax,[2]; [23],~0.083 to 0.25 h
same,Tmax,[2]; [24],~1 to 2 h
same,Tmax,[2]; [25],~1 to 2 h
same,Tmax,[2]; [26],~1 to 2 h
same,Tmax,[2]; [27],~0.083 to 0.25 h
same,Tmax,[2]; [28],~0.083 to 0.25 h
same,Ratio Cmax(alkylsacch)/Cmax(No alkylsacch),[2]; [29],≦1.5
same,Tmax,[2]; [29],~1 to 2 h
same,Ratio Cmax(alkylsacch)/Cmax(No alkylsacch),[2]; [30],≦1.5
same,Tmax,[2]; [30],~1 to 2 h
same,Ratio Cmax(alkylsacch)/Cmax(No alkylsacch),[2]; [31],≧1.5
same,Tmax,[2]; [31],~1 to 2 h
same,Ratio Cmax(alkylsacch)/Cmax(No alkylsacch),[2]; [32],≧1.5
same,Tmax,[2]; [32],~0.083 to 0.25 h
same,Ratio Cmax(alkylsacch)/Cmax(No alkylsacch),[2]; [33],≧1.5
same,Tmax,[2]; [33],~0.083 to 0.25 h
same,glucagon absorption / blood D-glucose values,blood D-glucose [3]; eye drops surfactant plus glucagon in rats previously treated with surfactant plus insulin eye drops,increase significantly
same,Blood Glucose Concentration,blood D-glucose [3]; time 130 min,95 mg/dL
same,Blood Glucose Concentration,blood D-glucose [3]; time 140 min,99 mg/dL
same,Blood Glucose Concentration,blood D-glucose [3]; time 150 min,132 mg/dL
same,Blood Glucose Concentration,blood D-glucose [3]; time 160 min,157 mg/dL
same,Blood Glucose Concentration,blood D-glucose [3]; time 170 min,171 mg/dL
same,Blood Glucose Concentration,blood D-glucose [3]; time 180 min,180 mg/dL
same,Blood Glucose Concentration,blood D-glucose [3]; time 190 min,189 mg/dL
"CCCCCCCOC1O[C@H](CO)[C@@H](O)[C@H](O)[C@H]1O (some centres unmarked) [heptylglucoside, heptylglucopyranoside]",hypoglycemic effect / insulin absorption enhancement,blood D-glucose [1],ineffective
"CCCCCCOC1O[C@H](CO)[C@@H](O)[C@H](O)[C@H]1O (some centres unmarked) [hexylglucoside, Hexylglucopyranoside]",hypoglycemic effect / insulin absorption enhancement,blood D-glucose [1],ineffective
"CCCCCCCCCOC1O[C@H](CO)[C@@H](O)[C@H](O)[C@H]1O (some centres unmarked) [nonylglucoside, nonylglucopyranoside]",hypoglycemic effect / insulin absorption enhancement,blood D-glucose [1],effectively stimulated insulin absorption
same,"blood glucose level, initial (from)",blood D-glucose [1]; [34],297 mg/dL
same,"blood glucose level, reduced (to)",blood D-glucose [1]; [34],150 mg/dL
"CCCCCCCCO[C@@H]1O[C@H](CO)[C@@H](O[C@H]2O[C@H](CO)[C@@H](O)[C@H](O)[C@H]2O)[C@H](O)[C@H]1O [octyl maltoside, Octyl-β-D-maltoside]",absorption enhancing activity by alkyl chain length,blood D-glucose [1],no
same,Ratio Cmax(alkylsacch)/Cmax(No alkylsacch),[2]; [19],≦1.5
same,Tmax,[2]; [19],~1 to 2 h
same,Ratio Cmax(alkylsacch)/Cmax(No alkylsacch),[2]; [20],≦1.5
same,Tmax,[2]; [20],~1 to 2 h
same,Ratio Cmax(alkylsacch)/Cmax(No alkylsacch),[2]; [21],≦1.5
same,Tmax,[2]; [21],~1 to 2 h
same,Ratio Cmax(alkylsacch)/Cmax(No alkylsacch),[2]; [22],≦1.5
same,Tmax,[2]; [22],~1 to 2 h
same,Ratio Cmax(alkylsacch)/Cmax(No alkylsacch),[2]; [23],≦1.5
same,Tmax,[2]; [23],~1 to 2 h
same,Tmax,[2]; [24],~1 to 2 h
same,Tmax,[2]; [25],~1 to 2 h
same,Tmax,[2]; [26],~1 to 2 h
same,Tmax,[2]; [27],~1 to 2 h
same,Tmax,[2]; [28],~1 to 2 h
same,Ratio Cmax(alkylsacch)/Cmax(No alkylsacch),[2]; [29],≦1.5
same,Tmax,[2]; [29],~1 to 2 h
same,Ratio Cmax(alkylsacch)/Cmax(No alkylsacch),[2]; [30],≦1.5
same,Tmax,[2]; [30],~1 to 2 h
same,Ratio Cmax(alkylsacch)/Cmax(No alkylsacch),[2]; [31],≦1.5
same,Tmax,[2]; [31],~1 to 2 h
same,Ratio Cmax(alkylsacch)/Cmax(No alkylsacch),[2]; [32],≦1.5
same,Tmax,[2]; [32],~1 to 2 h
same,Ratio Cmax(alkylsacch)/Cmax(No alkylsacch),[2]; [33],≦1.5
same,Tmax,[2]; [33],~1 to 2 h
decylsucrose,hypoglycemic effect / insulin absorption enhancement,blood D-glucose [1],effective in reducing blood glucose levels
same,blood glucose level,"blood D-glucose [1]; insulin eye drops + 0.5% alkyl saccharide, time 0 min",313 mg/dL
same,blood glucose level,"blood D-glucose [1]; insulin eye drops + 0.5% alkyl saccharide, time 120 min",164 mg/dL
dodecylsucrose [dodecyl sucrose],Blood Glucose Concentration,blood D-glucose [1]; [4],305 mg/dL
same,Blood Glucose Concentration,blood D-glucose [1]; [5],266 mg/dL
same,Blood Glucose Concentration,blood D-glucose [1]; [6],351 mg/dL
same,Blood Glucose Concentration,blood D-glucose [1]; [7],347 mg/dL
same,Blood Glucose Concentration,blood D-glucose [1]; [8],252 mg/dL
same,Blood Glucose Concentration,blood D-glucose [1]; [9],161 mg/dL
same,Blood Glucose Concentration,blood D-glucose [1]; [10],120 mg/dL
same,Blood Glucose Concentration,blood D-glucose [1]; [11],105 mg/dL
same,Blood Glucose Concentration,blood D-glucose [1]; [12],114 mg/dL
same,Blood Glucose Concentration,blood D-glucose [1]; [13],113 mg/dL
same,Blood Glucose Concentration,blood D-glucose [1]; [14],104 mg/dL
same,Blood Glucose Concentration,blood D-glucose [1]; [15],86 mg/dL
same,Blood Glucose Concentration,blood D-glucose [1]; [16],113 mg/dL
same,Blood Glucose Concentration,blood D-glucose [1]; [17],107 mg/dL
same,Blood Glucose Concentration,blood D-glucose [1]; [18],112 mg/dL
same,blood glucose level,"blood D-glucose [1]; insulin eye drops + […] alkyl saccharide, time 0 min",335 mg/dL
same,blood glucose level,"blood D-glucose [1]; insulin eye drops + […] alkyl saccharide, time 120 min",150 mg/dL
same,Tmax,[2]; [19],~1 h
same,Tmax,[2]; [20],~0.083 to 0.25 h
same,Tmax,[2]; [21],~0.083 to 0.25 h
same,Tmax,[2]; [22],~0.083 to 0.25 h
same,Tmax,[2]; [23],~0.083 to 0.25 h
same,Tmax,[2]; [24],~1 h
same,Tmax,[2]; [25],~0.083 to 0.25 h
same,Tmax,[2]; [26],~0.083 to 0.25 h
same,Tmax,[2]; [27],~0.083 to 0.25 h
same,Tmax,[2]; [28],~0.083 to 0.25 h
same,Tmax,[2]; [29],~1 h
same,Tmax,[2]; [30],~0.083 to 0.25 h
same,Tmax,[2]; [31],~0.083 to 0.25 h
same,Tmax,[2]; [32],~0.083 to 0.25 h
same,Tmax,[2]; [33],~0.083 to 0.25 h
